Data reported in US9006173B2, “Microcystins as agents for treatment of cancer” (priority 2006, dated 2015).
Read-outs that look alike come from different tables or passages of the source. Numbered stars: 1 amine (or outer) side, 2 acyl side, 3 side chain; on linkers, the order of the positions; unused ones are H or OH. Bridge positions count the residues as written; N and C are the ends. Square brackets hold non-standard residues; d marks the D form. Peptide text beside a SMILES is read from it. Adda = CO[C@@H](Cc1ccccc1)[C@@H](C)/C=C(C)/C=C/[C@H](N[*:1])[C@H](C)C(=O)[*:2]; dAsp(3S-Me) = C[C@H](C(=O)[*:3])[C@@H](N[*:1])C(=O)[*:2]; d(γGlu) = O=C(O)[C@@H](CCC(=O)[*:2])N[*:1]; NMeDha = C=C(NC)C(=O)O

Columns and labels:
[1] = test system: total phosphatase activity in OATP1B3-transfected HeLa cells; assay type: cell-based
[2] = test system: OATP1B3-transfected HeLa cells
[3] = test system: pIRESneo2 (control plasmid) transfected HeLa cells; assay: cells; assay type: cell-based
[4] = test system: OATP1B1-expressing HeLa xenografts; design: species or system athymic nude mice; conditions: mouse, in vivo, ip
[5] = test system: OATP1B1-transfected HeLa cells
[6] = test system: total phosphatase activity in OATP1B1-transfected HeLa cells; assay type: cell-based
[7] = test system: pIRESneo2 transfected HeLa cells; assay type: cell-based
[8] = design: species or system athymic nude mice; conditions: mouse, in vivo, ip
PP1 = PP1 (Homo sapiens, UniProt P62136); conditions: read-out: Reported Ki PP1; cited from earlier work
Sequence of PP1 (P62136 whole entry): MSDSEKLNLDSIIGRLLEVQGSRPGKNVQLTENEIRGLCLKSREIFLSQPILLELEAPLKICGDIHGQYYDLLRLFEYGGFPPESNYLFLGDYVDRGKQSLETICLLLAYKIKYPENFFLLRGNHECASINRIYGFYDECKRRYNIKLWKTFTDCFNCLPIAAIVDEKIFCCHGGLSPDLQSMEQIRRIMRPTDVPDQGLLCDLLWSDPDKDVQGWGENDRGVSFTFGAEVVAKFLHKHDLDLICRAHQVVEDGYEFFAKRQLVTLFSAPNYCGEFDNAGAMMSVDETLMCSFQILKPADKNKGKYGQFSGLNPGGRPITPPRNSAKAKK

[9] = test system: OATP1B1 transfected HeLa cells; assay type: cell-based
[10] = mouse, in vivo; cited from earlier work
PP2A = PP2A (Homo sapiens, UniProt P67775); conditions: cited from earlier work
Sequence of PP2A (P67775 whole entry): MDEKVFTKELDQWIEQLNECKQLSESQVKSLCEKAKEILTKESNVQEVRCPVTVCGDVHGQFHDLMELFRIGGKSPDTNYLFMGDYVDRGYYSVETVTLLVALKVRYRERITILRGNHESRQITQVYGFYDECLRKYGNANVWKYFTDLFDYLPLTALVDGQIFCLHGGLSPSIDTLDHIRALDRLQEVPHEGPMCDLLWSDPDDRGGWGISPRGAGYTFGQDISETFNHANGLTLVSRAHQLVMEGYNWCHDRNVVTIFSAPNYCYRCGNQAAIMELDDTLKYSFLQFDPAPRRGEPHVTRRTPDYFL

[11] = test system: HeLa cells transfected with pIRESneo2; assay type: cell-based
OATP1B1 = assay: in vitro; conditions: human
purified PP2A = molecular target: T1, purified PP2A (Homo sapiens, UniProt P67775); assay: biochemical; conditions: [33P]-MyBP substrate, 10 min pre-incubation, mean±SD; read-out: Enzyme Inhibition PP2A IC50
T1 construct: purchased Upstate Cell Signaling Solutions, NY
T1 sequence (P67775 whole entry): as above
T1 sequence (P30153 2-589, further chain): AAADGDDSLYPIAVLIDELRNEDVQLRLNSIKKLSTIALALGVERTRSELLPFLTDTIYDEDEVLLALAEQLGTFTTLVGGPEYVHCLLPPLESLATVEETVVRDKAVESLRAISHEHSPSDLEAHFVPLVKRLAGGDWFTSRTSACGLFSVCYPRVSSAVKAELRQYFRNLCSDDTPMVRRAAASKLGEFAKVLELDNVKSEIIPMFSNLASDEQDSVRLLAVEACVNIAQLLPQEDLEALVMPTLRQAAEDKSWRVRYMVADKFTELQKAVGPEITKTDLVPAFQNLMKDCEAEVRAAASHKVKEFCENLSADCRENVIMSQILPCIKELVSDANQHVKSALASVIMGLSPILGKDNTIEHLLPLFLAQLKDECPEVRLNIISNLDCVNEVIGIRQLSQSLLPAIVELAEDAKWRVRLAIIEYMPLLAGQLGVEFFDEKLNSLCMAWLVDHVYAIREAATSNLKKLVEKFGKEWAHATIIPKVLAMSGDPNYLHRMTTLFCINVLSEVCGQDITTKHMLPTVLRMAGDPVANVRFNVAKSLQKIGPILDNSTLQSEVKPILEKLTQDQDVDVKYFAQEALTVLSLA

OATP1B3 = assay: in vitro; conditions: human
purified PP1 = purified PP1 (Oryctolagus cuniculus, UniProt P62139); assay: biochemical
Sequence of purified PP1 (P62139 whole entry): as the sequence (P62136 whole entry) above

[12] = read-out: Growth Inhibition OATP1B3 IC50
[13] = read-out: Growth Inhibition pIRESneo2 IC50
[14] = read-out: Growth Inhibition OATP1B1 IC50
[15] = read-out: Growth inhibition: toxicity not reached / no cytotoxicity up to stated concentration in control cells

With C=C1C(=O)N[C@H](C)C(=O)N[C@@H](CC(C)C)C(=O)N[C@@H](C(=O)O)[C@H](C)C(=O)N[C@@H](Cc2ccccc2)C(=O)N[C@@H](/C=C/C(C)=C/[C@H](C)[C@H](Cc2ccccc2)OC)[C@H](C)C(=O)N[C@@H](C(=O)O)CCC(=O)N1C [Microcystin LF, microcystin LF] (F[Adda][d(γGlu)][NMeDha][dA]L[dAsp(3S-Me)]-OH; lactam N-7) the “Effect on total phosphatase activity” value [1] was “no discernable effect”, the IC50 [2, 12] was 0.9 ± 0.9 nM and the IC50 [3, 13] was over 1000 nM.

For C=C1C(=O)N[C@H](C)C(=O)N[C@@H](CC(C)C)C(=O)N[C@@H](C(=O)O)[C@H](C)C(=O)N[C@@H](CCCNC(=N)N)C(=O)N[C@@H](/C=C/C(C)=C/[C@H](C)[C@H](Cc2ccccc2)OC)[C@H](C)C(=O)N[C@@H](C(=O)O)CCC(=O)N1C [Microcystin LR, microcystin LR] (R[Adda][d(γGlu)][NMeDha][dA]L[dAsp(3S-Me)]-OH; lactam N-7), the “Average tumor volume, % of control” value [4] was 49 % of control, the “Growth inhibition activity after 1 hour exposure” value [5] was “less active” and the IC50 [5, 14] was 5 nM. For the same compound, the IC50 ([5]; read-out: Growth inhibition IC50 in presence of BSP, OATP1B1) was about 5000 nM, the “Decrease of total phosphatase activity” value [6] was “approximately 30%” and the “Cell and nuclear morphology changes” value [7] was “no changes in cellular morphology”. The “Body weight day 0, daily cohort” value [8] was 22.8±2.7 grams, the “Body weight day 0, every other day cohort” value [8] was 21.6±0.8 grams and the “Body weight day 18, daily cohort” value [8] was 19.0±1.2 grams. The “Body weight day 18, every other day cohort” value [8] was 22.3±2.4 grams, the IC50 [2, 12] was 39 nM and the IC50 ([2]; read-out: Growth inhibition IC50 in presence of BSP, OATP1B3) was about 5000 nM. For the same compound, the Ki (PP1) was 0.06 to 6 nM, the “Cell and nuclear morphology changes” value [9] was “membrane blebbing” and the “Share of total dose accumulating in the liver” value [10] was 70%. For the same compound, the Ki (PP2A; read-out: Reported Ki PP2A) was 0.01 to 2 nM, the “Clonogenic assay toxicity in vector alone cells” value [11] was “no toxicity” and the IC50 [3, 13] was over 10000 nM. For the same compound, the IC50 [3, 15] was over 10000 nM.

In the case of C=C1C(=O)N[C@H](C)C(=O)N[C@@H](CC(C)C)C(=O)N[C@@H](C(=O)O)[C@H](C)C(=O)N[C@@H](Cc2c[nH]c3ccccc23)C(=O)N[C@@H](/C=C/C(C)=C/[C@H](C)[C@H](Cc2ccccc2)OC)[C@H](C)C(=O)N[C@@H](C(=O)O)CCC(=O)N1C [Microcystin LW, microcystin LW] (W[Adda][d(γGlu)][NMeDha][dA]L[dAsp(3S-Me)]-OH; lactam N-7), the “Effect on total phosphatase activity” value [1] is reported as “no discernable effect”, the IC50 [2, 12] is reported as 0.5 ± 0.4 nM and the IC50 [3, 13] is reported as over 1000 nM.

With C=C1C(=O)N[C@H](C)C(=O)N[C@@H](CCCNC(=N)N)C(=O)N[C@@H](C(=O)O)[C@H](C)C(=O)N[C@@H](CCCNC(=N)N)C(=O)N[C@@H](/C=C/C(C)=C/[C@H](C)[C@H](Cc2ccccc2)OC)[C@H](C)C(=O)N[C@@H](C(=O)O)CCC(=O)N1C [Microcystin RR, microcystin RR] (R[Adda][d(γGlu)][NMeDha][dA]R[dAsp(3S-Me)]-OH; lactam N-7) the IC50 ([5]; read-out: Growth inhibition IC50 OATP1B1) was 3800 ± 2300 nM, the “Decrease of total phosphatase activity” value [1] was 90% and the IC50 ([2]; read-out: Growth inhibition IC50 OATP1B3) was 580 ± 400 nM. The IC50 [3, 13] was over 10000 nM and the IC50 [3, 15] was over 10000 nM.

With C=C1C(=O)N[C@H](C)C(=O)N[C@@H](Cc2ccc(O)cc2)C(=O)N[C@@H](C(=O)O)[C@H](C)C(=O)N[C@@H](CCCNC(=N)N)C(=O)N[C@@H](/C=C/C(C)=C/[C@H](C)[C@H](Cc2ccccc2)OC)[C@H](C)C(=O)N[C@@H](C(=O)O)CCC(=O)N1C [Microcystin YR, microcystin YR] (R[Adda][d(γGlu)][NMeDha][dA]Y[dAsp(3S-Me)]-OH; lactam N-7) the IC50 [5, 14] was 90 ± 20 nM, the IC50 [2, 12] was 45 ± 30 nM and the IC50 [3, 13] was over 1000 nM.

For C=C1[C@@H](O)[C@@H]2O[C@]3(CC[C@H](/C=C/[C@@H](C)[C@@H]4CC(C)=C[C@@]5(O[C@H](C[C@@](C)(O)C(=O)O)CC[C@H]5O)O4)O3)CC[C@H]2O[C@@H]1[C@@H](O)C[C@H](C)[C@H]1O[C@@]2(CCCCO2)CC[C@H]1C [Okadaic acid], the IC50 (OATP1B1) is given as 2.2 ± 0.6 nM, the IC50 (purified PP2A) is given as 0.4 ± 0.18 nM and the IC50 (PP2A; literature (18), read-out: Reported IC50 PP2A) is given as 15 to 70 nM. The IC50 (OATP1B3) was 3 ± 1.2 nM, the IC50 (purified PP1) was 90 ± 17 nM and the IC50 ([3]; Homo sapiens, HeLa, 72 h exposure, SRB dye assay, mean±SD, read-out: Growth Inhibition pIRESneo2 IC50) was 7.8 ± 1.5 nM.
